{"source": "paper PMC10622577", "about": "“Structural basis for stabilisation of the RAD51 nucleoprotein filament by BRCA2” (Nature Communications, 2023)", "molecules": {"B1": {"name": "60-nt ssDNA doubly biotinylated (ssDNA)", "DNA": "ATGGTGTGTGTAGGTTAATGTGAGGAGGAGAGGTGAAGAAGGAGGAGAGAAGAAGGAGGC"}, "B2": {"name": "50-nt dsDNA doubly biotinylated Cy3 (dsDNA)", "DNA 1": "CCGACTGACGCTCAACATAGGTACCACACGGCGAGCTCGATGCACCTCCA", "DNA 2": "TGGAGGTGCATCGAGCTCGCGACAAACCTTCTATGTTGAGCGTCAGTCGG"}}, "key": {"wild-type RAD51 NPF": {"tested_on": "wild-type RAD51 NPF", "assay": "SPR of BRC4-induced disassembly of wild-type RAD51 NPF", "format": "binding, human", "settings": "BRC4 0.1-15 μM, 120 s, CMA buffer pH 7.4, response minima, ss- and dsDNA, n = 3", "protocol": "(§1) We investigated further the effect of the acidic patch mutations on TR2 binding using surface plasmon resonance (SPR). We developed an SPR assay whereby increasing amounts of TR2 peptide were added to RAD51 NPFs that had been assembled on biotinylated DNA coupled to a streptavidin chip (Supplementary Fig. 3A, Supplementary Table 1). […] We used the same SPR assay to assess the effect of the mutations on the ability of BRC4 to disrupt an established filament (Supplementary Fig. 4A, Supplementary Table 1).\n(§2) All SPR experiments were performed using a Biacore T200 instrument and an S-series SA (Streptavidin) sensor chip. A single chip was used to immobilise biotinylated single- and double-stranded DNA in buffer: 25 mM HEPES pH 7.4, 100 mM NaCl, 1 mM EDTA. ssDNA and dsDNA were immobilised in different channels to a signal of 120 RU and 250 RU, respectively.\n(§3) All binding experiments were performed in CMA buffer: 25 mM HEPES pH 7.4, 100 mM NaCl, 2 mM DTT, 2 mM ATP, 5 mM CaCl2, 5 mM MgCl2. 1 μM RAD51 (wild-type, D184A or D184A, D187A mutant proteins) was injected for 120 seconds followed by buffer for 120 seconds at a flow rate of 10 μl/min. TR2 or BRC4 peptides were then injected in a concentration titration series of 0.1, 0.25, 0.5, 0.75, 1, 2, 3, 5, 7.5, 10 and 15 μM for 120 seconds at a flow rate of […] followed by a dissociation time of 240 seconds. […]"}, "RAD51 D184A, D187A NPF": {"tested_on": "RAD51 D184A, D187A NPF", "assay": "SPR of BRC4-induced disassembly of RAD51 D184A, D187A NPF", "format": "binding, human", "settings": "BRC4 0.1-15 μM, 120 s, CMA buffer pH 7.4, response minima, ss- and dsDNA, n = 3", "protocol": "as §1, §2, §3"}, "RAD51 D184A": {"tested_on": "RAD51 D184A", "assay": "EMSA of BRC4 disruption of NPF formation, RAD51 D184A", "format": "binding, human", "settings": "BRC4 pre-mixed with RAD51 10 min, room temperature, before addition of ss- or dsDNA, performed once", "protocol": "(§4) To test whether the acidic patch was also required for BRC4 binding to RAD51, we examined whether the interaction of a BRC4 peptide spanning BRCA2 amino acids 1514 to 1548 was impacted by the D184A and D184A, D187 mutations.\n(§5) To assess RAD51 nucleoprotein (NPF) formation, wild-type and mutant RAD51 proteins were incubated with DNA in buffer: 25 mM HEPES pH 7.5, 150 mM NaCl, 2 mM DTT, 2 mM ATP, 5 mM CaCl2 for 15 minutes at room temperature. For filament binding of the TR2 peptide or His6-MBP-TR2 protein, the RAD51 NPFs were incubated with TR2 for further 5 minutes at room temperature. For filament binding of BRC4, the BRC4 peptide was pre-mixed with RAD51 for 10 minutes at room temperature before addition of DNA. For experiments with mono-streptavidin (mSA)-capped DNA, mSA (Sigma) was added in 5× molar excess of biotin labels for 15 minutes at room temperature prior to the addition of RAD51. Concentrations are provided in figures and DNA sequences for each experiment are reported in Supplementary Table 1.\n(§6) Before electrophoresis, samples were mixed with a 0.5:1 volume of 50% (w/v) sucrose solution and analysed on a pre-run 0.5% (w/v) agarose gel in 0.5× TB buffer at 35 V for 2.5 hours at 4 °C. DNA was visualised by excitation of the fluorescent tag or, in the case of unlabelled DNA, by SYBR Gold staining. […]"}, "RAD51 D184A NPF": {"tested_on": "RAD51 D184A NPF", "assay": "SPR of BRC4-induced disassembly of RAD51 D184A NPF", "format": "binding, human", "settings": "BRC4 0.1-15 μM, 120 s, CMA buffer pH 7.4, response minima, ss- and dsDNA, n = 3", "protocol": "as §1, §2, §3"}, "RAD51 D184A, D187A": {"tested_on": "RAD51 D184A, D187A", "assay": "EMSA of BRC4 disruption of NPF formation, RAD51 D184A, D187A", "format": "binding, human", "settings": "BRC4 pre-mixed with RAD51 10 min, room temperature, before addition of ss- or dsDNA, performed once", "protocol": "as §4, §5, §6"}, "RAD51;BRCA2 TR2 peptide [1]": {"biological_target": "T1, RAD51;BRCA2 TR2 peptide (Homo sapiens;Homo sapiens, UniProt Q06609;P51587 1-339;, |)", "assay": "cryo-EM structure; mSA caps; EMSA: 25 mM HEPES pH 7.5, 150 mM NaCl, 2 mM DTT, 2 mM ATP, 5 mM CaCl2, room temperature; SPR: 25 mM HEPES pH 7.4, 100 mM NaCl, 2 mM DTT, 2 mM ATP, 5 mM CaCl2, 5 mM MgCl2", "settings": "tags: untagged (co-expressed with His6-MBP-BRC4, pMBP4-RAD51);; label: 5' and 3' biotin"}, "RAD51;BRCA2 TR2 peptide [2]": {"biological_target": "T1, RAD51;BRCA2 TR2 peptide", "assay": "cryo-EM structure; mSA caps; no bundling; EMSA: 25 mM HEPES pH 7.5, 150 mM NaCl, 2 mM DTT, 2 mM ATP, 5 mM CaCl2, room temperature; SPR: 25 mM HEPES pH 7.4, 100 mM NaCl, 2 mM DTT, 2 mM ATP, 5 mM CaCl2, 5 mM MgCl2", "settings": "tags: untagged (co-expressed with His6-MBP-BRC4, pMBP4-RAD51);; label: 5' biotin on both strands; 3' Cy3 on strand 1; blunt ends, internal mismatched bubble about 10 nt"}}, "data": [{"molecule": "EKIKEPTLLGFHTASGKKVKIAKESLDKVKNLFDE [BRC4, BRC4 peptide spanning BRCA2 amino acids 1514 to 1548]", "values": [{"measurement": "disassembly of an established RAD51 NPF by BRC4", "setting": "wild-type RAD51 NPF", "value": "able to induce disassembly of a wild-type RAD51 NPF"}, {"measurement": "disassembly of an established RAD51 NPF by BRC4, reduction relative to wild-type", "setting": "RAD51 D184A, D187A NPF", "value": "to a large degree"}, {"measurement": "ability of BRC4 to disrupt RAD51 NPF formation", "setting": "RAD51 D184A", "value": "moderately reduced"}, {"measurement": "disassembly of an established RAD51 NPF by BRC4 relative to wild-type", "setting": "RAD51 D184A NPF", "value": "moderately reduced"}, {"measurement": "ability of BRC4 to disrupt RAD51 NPF formation", "setting": "RAD51 D184A, D187A", "value": "severely impaired"}]}, {"molecule": "B1", "values": [{"measurement": "binding result", "setting": "RAD51;BRCA2 TR2 peptide [1]", "value": "binds"}]}, {"molecule": "B2", "values": [{"measurement": "binding result", "setting": "RAD51;BRCA2 TR2 peptide [2]", "value": "binds"}]}]}
